Measurements as given in patent US7405228B2, “Antibacterial cyano-(substituted)-methylenepiperidinophenyl oxazolidinones targeting multiple ribonucleoprotein sites” (Wockhardt Limited, priority 2002, dated 2008).

First: N#CC=C1CCN(c2ccc(N3C[C@H](CN=C=O)OC3=O)cc2F)CC1 (stereo in doubt)
Second: N#CC=C1CCN(c2ccc(N3CC(CN=[N+]=[N-])OC3=O)cc2F)CC1 (stereo in doubt) [Example 16, (S)-{3-[4-(4-cyanomethylidene-piperidin-1-yl)-3-fluorophenyl]-2-oxo-oxazolidin-5-ylmethyl}-azide]
The melting point of the first is higher: 172 to 174 °C for the first, 112 to 114 °C for the second.

Compared with `N#CC=C1CCN(c2ccc(N3CC(CN=[N+]=[N-])OC3=O)cc2)CC1` (stereo in doubt) [Example 1, (S)-{3-[4-(4-cyanomethylidene-piperidin-1-yl)-phenyl]-2-oxo-oxazolidin-5-ylmethyl}-azide], `CS(=O)(=O)OC[C@H]1CN(c2ccc(N3CCC(=CC#N)CC3)cc2)C(=O)O1` [Example 6, (R)-{3-[4-(4-cyanomethylidene-piperidin-1-yl)-phenyl]-2-oxo-oxazolidin-5-ylmethyl}-methanesulphonate] is higher in melting point: 80 to 82 °C for the first, 120 to 122 °C for the second.

First: N#CC=C1CCN(c2ccc(N3CC(Cn4cc(C#N)nn4)OC3=O)cc2)CC1 (stereo in doubt) [Example 5, (S)-1-{3-[4-(4-cyanomethylidene-piperidin-1-yl)-phenyl]-2-oxo-oxazolidin-5-ylmethyl}-4-cyano-1,2,3-triazole]
Second: N#CC=C1CCN(c2ccc(N3CC(Cn4cc(C#N)nn4)OC3=O)cc2F)CC1 (stereo in doubt) [Example 28, (S)-1-{3-[4-(4-cyanomethylidene-piperidin-1-yl)-3-fluorophenyl]-2-oxo-oxazolidin-5-ylmethyl}-4-cyano-1,2,3-triazole]
The melting point of the first is higher: 186 to 188 °C for the first, 78 to 80 °C for the second.

Going from `N#CC=C1CCN(c2ccc(N3C[C@H](CNC(=O)C4COC(=O)N4)OC3=O)cc2F)CC1` (stereo in doubt) [Example 24, (S)-N-{3-[4-(4-cyanomethylidene-piperidin-1-yl)-3-fluorophenyl]-2-oxo-oxazolidin-5-ylmethyl}-2-oxo-oxazolidin-4-yl-carboxamide] to `N#CC=C1CCN(c2ccc(N3C[C@H](CNC(=O)C4CCCN4)OC3=O)cc2F)CC1` (stereo in doubt) [Example 25, (S)-N-{3-[4-(4-cyanomethylidene-piperidin-1-yl)-3-fluorophenyl]-2-oxo-oxazolidin-5-ylmethyl}-pyrrolidin-2-carboxamide], the melting point rises from 145 °C to 155 °C.

First: CCOC(=O)c1cn(CC2CN(c3ccc(N4CCC(=CC#N)CC4)c(F)c3)C(=O)O2)nn1 (stereo in doubt) [Example 26, (S)-1-{3-[4-(4-cyanomethylidene-piperidin-1-yl)-3-fluorophenyl]-2-oxo-oxazolidin-5-ylmethyl}-4-carboethoxy-1,2,3-triazole]
Second: CCOC(=O)c1cnnn1CC1CN(c2ccc(N3CCC(=CC#N)CC3)c(F)c2)C(=O)O1 (stereo in doubt) [Example 27, (S)-1-{3-[4-(4-cyanomethylidene-piperidin-1-yl)-3-fluorophenyl]-2-oxo-oxazolidin-5-ylmethyl}-5-carboethoxy-1,2,3-triazole]
The melting point of the first is higher: 164 to 166 °C for the first, 70 to 72 °C for the second.

First: N#CCC1CCN(c2ccc(N3CC(CN=[N+]=[N-])OC3=O)cc2)CC1 (stereo in doubt) [Example 122, (S)-{3-[4-(4-cyanomethyl-piperidin-1-yl)-phenyl]-2-oxo-oxazolidin-5-ylmethyl}-azide]
Second: CCOC(=O)c1cn(CC2CN(c3ccc(N4CCC(CC#N)CC4)cc3)C(=O)O2)nn1 (stereo in doubt) [Example 123, (S)-1-{3-[4-(4-cyanomethyl-piperidin-1-yl)-phenyl]-2-oxo-oxazolidin-5-ylmethyl}-4-carboethoxy-1,2,3-triazole]
The melting point of the first is lower: 85 to 86 °C for the first, 198 to 200 °C for the second.

Compared with `N#CCC1CCN(c2ccc(N3CC(Cn4cc(C(N)=O)nn4)OC3=O)cc2F)CC1` (stereo in doubt) [Example 127, (S)-1-{3-[4-(4-cyanomethyl-piperidin-1-yl)-3-fluorophenyl]-2-oxo-oxazolidin-5-ylmethyl}-4-carboxamido-1,2,3-triazole], `N#CCC1CCN(c2ccc(N3CC(Cn4cc(C#N)nn4)OC3=O)cc2F)CC1` (stereo in doubt) [Example 128, (S)-1-{3-[4-(4-cyanomethyl-piperidin-1-yl)-3-fluorophenyl]-2-oxo-oxazolidin-5-ylmethyl}-4-cyano-1,2,3-triazole] is lower in melting point: 248 to 250 °C for the first, 200 to 202 °C for the second.

First: N#CC=C1CCN(c2ccc(N3C[C@H](CNC=O)OC3=O)cc2F)CC1 [Example 8, (S)-N-{3-[4-(4-cyanomethylidene-piperidin-1-yl)-3-fluorophenyl]-2-oxo-oxazolidin-5-ylmethyl}-formamide]
Second: N#CC=C1CCN(c2ccc(N3C[C@H](CNC(=O)CO)OC3=O)cc2F)CC1 [Example 13, (S)-N-{3-[4-(4-cyanomethylidene-piperidin-1-yl)-3-fluorophenyl]-2-oxo-oxazolidin-5-ylmethyl}-2-hydroxyacetamide]
The melting point of the first is higher: 183 to 184 °C for the first, 68 to 70 °C for the second.

First: CC(C)(C)CC(=O)NC[C@H]1CN(c2ccc(N3CCC(=CC#N)CC3)c(F)c2)C(=O)O1 [Example 12, (S)-N-{3-[4-(4-cyanomethylidene-piperidin-1-yl)-3-fluorophenyl]-2-oxo-oxazolidin-5-ylmethyl}-3,3-dimethylbutanamide]
Second: CC(C)(C)C(=O)OCC(=O)NC[C@H]1CN(c2ccc(N3CCC(=CC#N)CC3)c(F)c2)C(=O)O1 [Example 14, (S)-N-{3-[4-(4-cyanomethylidene-piperidin-1-yl)-3-fluorophenyl]-2-oxo-oxazolidin-5-ylmethyl}-2-pivolyloxyacetamide]
The melting point of the first is higher: 210 to 212 °C for the first, 91 to 93 °C for the second.

Compared with `C=CCN(C#N)C[C@H]1CN(c2ccc(N3CCC(=CC#N)CC3)c(F)c2)C(=O)O1` [Example 22, (S)-{N-{3-[4-(4-cyanomethylidene-piperidin-1-yl)-3-fluorophenyl]-2-oxo-oxazolidin-5-ylmethylamino}N-cyano}-prop-2-ene], `N#CC=C1CCN(c2ccc(N3C[C@H](CNC(=O)CC#N)OC3=O)cc2F)CC1` [Example 23, (S)-N-{3-[4-(4-cyanomethylidene-piperidin-1-yl)-3-fluorophenyl]-2-oxo-oxazolidin-5-ylmethyl}-2-cyanoacetamide] is higher in melting point: 111 to 113 °C for the first, 150 to 152 °C for the second.

First: N#CC=C1CCN(c2ccc(N3C[C@H](CNC(=O)C(F)F)OC3=O)cc2F)CC1 [Example 29, (S)-N-{3-[4-(4-cyanomethylidene-piperidin-1-yl)-3-fluorophenyl]-2-oxo-oxazolidin-5-ylmethyl}-difluoroacetamide]
Second: N#CC=C1CCN(c2ccc(N3C[C@H](CNC(=O)CBr)OC3=O)cc2F)CC1 [Example 34, (S)-N-{3-[4-(4-cyanomethylidene-piperidin-1-yl)-3-fluorophenyl]-2-oxo-oxazolidin-5-ylmethyl}-bromoacetamide]
The melting point of the first is higher: 162 to 164 °C for the first, 160 to 162 °C for the second.

Molecule `N#CC=C1CCN(c2ccc(N3C[C@H](CNC(=O)C(Cl)(Cl)Cl)OC3=O)cc2F)CC1` [Example 33, (S)-N-{3-[4-(4-cyanomethylidene-piperidin-1-yl)-3-fluorophenyl]-2-oxo-oxazolidin-5-ylmethyl}-trichloroacetamide] has a melting point of 142 to 144 °C.
